According to patent US9486519B2, “Use of FLT3 ligand for enhancing immune responses in RNA immunization” (BioNTech AG, priority 2008, dated 2016):

Columns and labels:
human iDCs = assay: RNA uptake by human iDCs pretreated with macropinocytosis inhibitors, luciferase test; format: cell-based; conditions: 15 min luciferase-RNA or Cy3-RNA
Description: (b-c) Human iDCs were pretreated with various inhibitors (dimethyl amiloride, cytochalasin D, LY294002, Rottlerin) and then coincubated for 15 min with luciferase-RNA or Cy3-RNA. After 24 h the luciferase signal was quantified in a standard luminescence test.
To verify whether the macropinocytosis constitutively active in iDCs is relevant for the uptake of naked RNA, human iDCs were pretreated with various inhibitors (dimethyl amiloride, cytochalasin D, LY294002, Rottlerin) and then coincubated for 15 min with luciferase-RNA or Cy3-RNA. After culture for a further 22 h, RNA uptake was quantified in a luciferase test. The mean+SEM is shown. The iDCs coincubated with Cy3-RNA (red) were fixed with paraformaldehyde and counterstained (Hoechst 33342, blue). […] FIG. 6(b-c).

macropinocytosis [1] = assay: RNA uptake in lymph nodes after in vivo Rottlerin pretreatment, in-vivo bioluminescence; parameters: species or system C57Bl/6 mice; conditions: inguinal lymph nodes pretreated with 10 μM; luciferase-RNA 10 μg intranodally; 24 h
Description: To clarify whether macropinocytosis is also the uptake mechanism relevant in vivo for RNA in the lymph node, the inguinal lymph nodes of C57/B16 mice were pretreated with Rottlerin (n=4, 10 μM) and then luciferase-RNA (10 μg) was injected intranodally. After 24 h, the in-vivo bioluminescence signal was measured.

macropinocytosis [2] = assay: Intranodal RNA immunization after Rottlerin pretreatment of lymph nodes, tetramer measurement; format: in vivo, C57Bl/6 mice; conditions: SIINFEKL-coding RNA 20 μg intranodally d0 and d3; lymph nodes pretreated
Description: (e) C57Bl/6 mice (n=3) were immunized intranodally on d0 and d3 with […]-coding RNA (20 μg). On both days the lymph nodes were pretreated with Rottlerin as described above. On day 8 the success of immunization was quantified by tetramer measurement in the peripheral blood. The success of intranodal RNA immunization correlated directly with the ability of cells to take up RNA by macropinocytosis.
To verify whether the in vivo inhibition of macropinocytosis has an effect on the efficiency of T cell priming after intranodal RNA immunization, C57/B16 mice (n=3) were immunized intranodally on d0 and d3 with […]-coding RNA (20 μg). On both days the lymph nodes were pretreated with Rottlerin as described above. The mean+SEM of the frequency of CD8+ antigen-specific T lymphocytes is shown. […] FIG. 6(e).
The main uptake mechanism of RNA uptake is macropinocytosis.

[3] = system: RNA uptake in the lymph nodes; assay: Effect of Poly I:C on RNA uptake in lymph nodes, in-vivo bioluminescence; parameters: species or system C57Bl/6 mice; conditions: 20 μg s.c.; luciferase-RNA intranodally after 2 or 24 h
Description: (e) Effect of Poly I:C on RNA uptake. C57Bl/6 mice (n=4) were injected s.c. with PBS or Poly I:C (20 μg) and after 2 or 24 h, luciferase-RNA was applied intranodally. After 24 h the luciferase signal was quantified in a standard bioluminescence test.
In order to verify to what extent maturing adjuvants can also lead in vivo to a reduction of RNA uptake, we tested the effect of Poly I:C on RNA uptake; cf. FIG. 7(e). For this, C57/Bl6 mice (n=4) were injected s.c. with PBS or Poly I:C (20 μg) and after 2 or 24 h, luciferase-RNA was applied intranodally. The in-vivo bioluminescence was measured after a further 24 h. The mean+SEM is shown.

[4] = system: cell populations of the murine lymph node; assay: Effects of different Flt3L on the cellular composition in lymph nodes; format: in vivo, C57BL/6 mice; conditions: 0.4 mol i.p. day 0; lymph nodes day 10
Source text: On day 10 the lymph nodes of the mice were removed and characterized by flow cytometry. Dendritic cells (DCs (marker: CD11c^+/NK1.1^−)), CD4^+ helper T cells (marker: CD3^+/CD4^+/CD8^−/NK1.1^−), CD8^+ T cells (marker: CD3^+/CD8^+/CD4^−/NK1.1^−), CD19^+ B cells (marker: CD19^+/CD3^−/NK1.1^−).
In this experiment Flt3 ligand (Flt3-IgG4) was compared with commercially available Flt3 preparations with respect to the effect on different cell populations of the murine lymph node. A product recombinantly expressed in bacteria (Peprotech Flt3L; Peprotech, Hamburg, Germany) and a product expressed in human HEK293 cells (Humanzyme Flt3L, Humanzyme; Chicago Ill., U.S.A.) were used as commercially available Flt3 preparations. Human IgG4 (Sigma-Aldrich, Deisenhofen, Germany) served as control.
On day 10 both inguinal lymph nodes of the mice were removed, the cell count determined by means of a Neubauer chamber and the cell populations were characterized by flow cytometry.

[5] = Robinson et al., 2003; cited from earlier work

Molecule: CC(=O)c1c(O)c(C)c(O)c(Cc2c(O)c3c(c(C(=O)/C=C/c4ccccc4)c2O)OC(C)(C)C=C3)c1O [Rottlerin]
- inhibition of RNA uptake (human iDCs): more than 90%
- RNA uptake in the lymph node (macropinocytosis [1]): drastically reduced
- vaccine action after inhibition of macropinocytosis (macropinocytosis [2]): almost complete loss of vaccine action

Molecule: Poly I:C
- RNA uptake (in-vivo bioluminescence) [3]: sharp reduction in RNA uptake

B1: Flt3L (Humanzyme): commercially available Flt3 preparation expressed in human HEK293 cells (Humanzyme) (protein, UniProt P49771 27-235, looked up)
Fms-related tyrosine kinase 3 …: TQDCSFQHSPISSDFAVKIRELSDYLLQDYPVTVASNLQDEELCGGLWRLVLAQRWMERLKTVAGSKMQGLLERVNTEIHFVTKCAFQPPPSCLRFVQTNISRLLQETSEQLVALKPWITRQNFSRCLELQCQPDSSTLPPPWSPRPLEATAPTAPQPPLLLLLLLPVGLLLLAAAWCLHWQRTRRRTPRPGEQVPPVPSPQDLLLVEH
- expansion of dendritic cells [4]: strong similarity

B2: Flt3L without IgG4 fusion: Flt3L without IgG4 fusion, published half-life value (Robinson et al., 2003) (protein, UniProt P49771 27-235, looked up)
Fms-related tyrosine kinase 3 …: B1 Fms-related tyrosine kinase 3 …
- published value for the half-life [5]: 5 h

B3: Flt3L (Peprotech): commercially available Flt3 preparation recombinantly expressed in bacteria (Peprotech) (protein, UniProt P49771 27-235, looked up)
Fms-related tyrosine kinase 3 …: B1 Fms-related tyrosine kinase 3 …
- expansion of dendritic cells [4]: only slightly potent
